Patent US20220142925A1, “NON-STEROIDAL ANTI-INFLAMMATORY LYOPHILIZED PHARMACEUTICAL COMPOSITION” (EUROFARMA LABORATÓRIOS S.A., priority 2019, published 2022)
Where two headings read alike, the source gives them in different places.

Experiments:
[1] = cited from earlier work; for solubility (in words): aqueous; for solubility: 20° C.
[2] = cited from earlier work
[3] = Forced degradation study (formation of valdecoxib); type: physicochemical; conditions: oxidative, basic, acidic conditions
cyclooxygenase 1 (COX-1) = cyclooxygenase 1 (COX-1) (Homo sapiens, UniProt P23219); conditions: therapeutic plasma concentrations in humans; cited from earlier work
Chain of cyclooxygenase 1 (COX-1) (P23219 24-599): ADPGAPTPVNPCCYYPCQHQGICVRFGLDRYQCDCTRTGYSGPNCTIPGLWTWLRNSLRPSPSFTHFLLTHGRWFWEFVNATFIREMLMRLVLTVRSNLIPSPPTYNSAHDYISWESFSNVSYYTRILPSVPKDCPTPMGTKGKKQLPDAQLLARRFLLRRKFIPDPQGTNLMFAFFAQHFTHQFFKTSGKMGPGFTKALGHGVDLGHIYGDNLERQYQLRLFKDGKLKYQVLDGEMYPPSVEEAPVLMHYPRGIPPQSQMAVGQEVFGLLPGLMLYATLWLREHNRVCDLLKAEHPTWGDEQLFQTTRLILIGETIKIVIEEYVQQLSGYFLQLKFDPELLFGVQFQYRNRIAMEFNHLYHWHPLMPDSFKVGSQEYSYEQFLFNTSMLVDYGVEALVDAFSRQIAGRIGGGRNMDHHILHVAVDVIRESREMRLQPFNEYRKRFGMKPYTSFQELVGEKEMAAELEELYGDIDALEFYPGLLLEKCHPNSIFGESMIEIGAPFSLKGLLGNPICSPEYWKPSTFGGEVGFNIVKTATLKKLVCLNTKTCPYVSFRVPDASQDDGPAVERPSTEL

Compound: CCC(=O)NS(=O)(=O)c1ccc(-c2c(-c3ccccc3)noc2C)cc1 [acidic form of parecoxib]
- solubility (in words) [1]: low solubility

Compound: CCC(=O)NS(=O)(=O)c1ccc(-c2c(-c3ccccc3)noc2C)cc1 [Parecoxib, parecoxib]
- pH of 1% parecoxib in water ([2]; 1% in water at 25° C.): about 7.80
- dissociation constant, pKa [2]: 6.07
- solubility in methylene hydrochloride ([1]; methylene chloride): insoluble
- solubility in tetrahydrofuran ([1]; tetrahydrofuran): slightly soluble
- solubility in water ([1]; water): very soluble

Compound: CCC(=O)NS(=O)(=O)c1ccc(-c2c(-c3ccccc3)noc2C)cc1.[Na+] [parecoxib sodium, N-[[4-(5-methyl-3-phenyl-4-isoxazolyl)phenyl]sulfonyl]propanamide sodium salt]
- sensitivity in forced degradation in relation to the formation of valdecoxib [3]: sensitive to oxidative, basic, and acidic conditions
- solubility ([1]; pH 7.8): 18 mg/mL
- solubility ([1]; pH 8.3): 220 mg/mL
- solubility (in words) [1]: highly soluble

Compound: Cc1onc(-c2ccccc2)c1-c1ccc(S(N)(=O)=O)cc1 [valdecoxib]
- solubility (in words) [1]: low
- inhibition of cyclooxygenase 1 (COX-1) (cyclooxygenase 1 (COX-1)): does not inhibit
